From patent US9089139B2, “Agri-horticultural pest control compositions comprising 4-(3-butynyl)aminopyrimidine derivatives” (SDS Biotech K. K., priority 2011, dated 2015)
Like-named read-outs stand apart in the source and are kept apart here.

Assays:
[1] = test system: Pseudoperonospora cubensis; test: Control effect against Pseudoperonospora cubensis on cucumber seedlings (control index as in Test 1); type: in vivo; conditions: for pest or weed control at 0.05 ppm: test concentration 0.05 ppm
From the text: (§1) The expected efficacies of the combinations of the individual active compounds can be determined using Colby's formula, which is described below [Colby, S. R. “Calculating synergistic and antagonistic responses of herbicide combinations,” Weeds 15, 20-22 (1967)]: Colby's formula: E=A+B−(A×B/100) E is the predicted efficacy (control index) with reference to the untreated control when using the mixture of the active compound X at the concentration x and the active compound Y at the concentration y; A is the efficacy (control index) with respect to the untreated control when using the active compound X at the concentration x; B is the efficacy (control index) with respect to the untreated control when using the active compound […] at the concentration y.
(§2) Potted young seedlings of cucumber (variety: SAGAMI HANJIRO; in two-leaf stage) were sprayed with invention compounds formulated in accordance with Preparations and the existing antimicrobial active compounds listed in Table 3 (all compounds are identified by associated letters of the alphabet) after they were diluted with water to predetermined concentrations so that they would serve as active compounds; a spray gun was used to provide a spray rate of 15 ml per pot. After air-drying, the seedlings were inoculated with conida of Sphaerotheca fuliginea by spraying a suspension of the conida. Thereafter, the seedlings were cultivated for 14 days in a greenhouse and the percentage of diseased area was investigated for each leaf; based on the result of this investigation, the control index was calculated using the following formula: Control index={(percentage of diseased area on the untreated control−percentage of diseased area on treated sample)/percentage of diseased area on the untreated control}×100
Potted young seedlings of cucumber (variety: SAGAMI HANJIRO; in two-and-a-half leaf stage) were sprayed with invention agri-horticulatural pest control compositions formulated in accordance with Preparations and the existing antimicrobial active compounds listed in Table 5 (all compounds are identified by associated letters of the alphabet) after they were diluted with water to predetermined concentrations so that they would serve as active compounds; a spray gun was used to provide a spray rate of 15 ml per pot. After air-drying, the seedlings were inoculated with conida of Pseudoperonospora cubensis by spraying a suspension of the conida. Immediately thereafter, the seedlings were held for a day under the conditions of 21° C. and 100% humidity. The seedlings were then placed at room temperature and 3 days later, the percentage of diseased area was investigated for each leaf; based on the result of this investigation, the control index was calculated as in Test 1.

Aphis gossypii = test: Test 3: insecticidal effect on Aphis gossypii (mortality rate); type: in vivo
From the text: as §1
Invention compounds and the existing insecticidal active compounds shown in Table 7 (hereinbelow, the compound names are identified by associated letters of the alphabet) were diluted with water to predetermined concentrations so that they would serve as active ingredients. Cucumber leaves with a diameter of 3 cm were placed on plastic cups filled with 0.5% soft agar and five adult aphids were released to feed on the leaves. After standing overnight, the adult insects were removed and the number of nymph as an offspring was counted; each of the prepared liquid samples of insecticide was sprayed in 0.4 ml portions and two days later, the number of dead insects was countd to calculate the mortality rate. The expected efficacies of the combinations of the individual active compounds were calculated by Colby's formula.

Sphaerotheca fuliginea = test: Test 1: control effect against powdery mildew on cucumber (control index); type: in vivo, Sphaerotheca fuliginea on cucumber (variety: SAGAMI HANJIRO); conditions: for pest or weed control at 0.5 ppm: test concentration 0.5 ppm; for pest or weed control at 10 ppm: read-out: Control index
From the text: as §1, §2

[2] = individual active compound, test concentration 1 ppm
[3] = Podosphaera fuliginea, 336 h, individual active compound, test concentration 100 ppm
[4] = Aphis gossypii, 48 h, individual active compound, test concentration 0.1 ppm, read-out: Observed value Mortality rate
[5] = Podosphaera fuliginea, 336 h, individual active compound
[6] = Pseudoperonospora cubensis, 72 h, individual active compound, read-out: Observed value Control index
[7] = Podosphaera fuliginea, 336 h, individual active compound, test concentration 1 ppm
[8] = individual active compound, test concentration 0.1 ppm
[9] = Podosphaera fuliginea, 336 h, individual active compound, test concentration 10 ppm
[10] = individual active compound, test concentration 10 ppm

C#CCOc1ccc(CCNC(=O)C(OCC#C)c2ccc(Cl)cc2)cc1OC (stereo not shown) [Jc: Mandipropamid, mandipropamid]
Observed value Control index ([1]; individual active compound, test concentration 0.5 ppm): 21

N#CCNC(=O)c1cnccc1C(F)(F)F [T: Flonicamid, flonicamid, reference compound]
Observed value Mortality rate (Aphis gossypii; [2]): 43

CO/N=C(/C(=O)OC)c1ccccc1COc1ccccc1C [Eb: Kresoxim-methyl, kresoxim-methyl]
pest or weed control at 100 ppm (Sphaerotheca fuliginea; [3]): 29%
pest or weed control at 1 ppm ([1]; Pseudoperonospora cubensis, 72 h, individual active compound, test concentration 1 ppm, read-out: Observed value Control index): 42%

CCNC(=O)NC(=O)/C(C#N)=N/OC [Na: Cymoxanil, cymoxanil]
pest or weed control at 10 ppm ([1]; Pseudoperonospora cubensis, 72 h, individual active compound, test concentration 10 ppm, read-out: Observed value Control index): 45%

FCc1ccccc1C#CCCNc1ncnc2ccccc12 [compound 99]
pest or weed control at 0.1 ppm (Aphis gossypii; [4]): 44%
pest or weed control at 0.5 ppm (Sphaerotheca fuliginea; [5]): 53%
pest or weed control at 0.05 ppm [1, 6]: 46%

CC(Cc1ccc(C(C)(C)C)cc1)CN1C[C@@H](C)O[C@@H](C)C1 (stereo partly shown) [He: Fenpropimorph, fenpropimorph]
pest or weed control at 100 ppm (Sphaerotheca fuliginea; [3]): 12%

Cc1ccc(-c2c(Cl)nc(C#N)n2S(=O)(=O)N(C)C)cc1 [Fb: Cyazofamid, cyazofamid]
pest or weed control at 0.1 ppm ([1]; Pseudoperonospora cubensis, 72 h, individual active compound, test concentration 0.1 ppm, read-out: Observed value Control index): 50%

COc1ccc(C(=CC(=O)N2CCOCC2)c2ccc(Cl)cc2)cc1OC [Ja: Dimethomorph, dimethomorph]
pest or weed control at 5 ppm ([1]; Pseudoperonospora cubensis, 72 h, individual active compound, test concentration 5 ppm, read-out: Observed value Control index): 21%

CC(=O)N1C(=O)N(NCc2cccnc2)Cc2cc(C(F)(C(F)(F)F)C(F)(F)F)ccc21 [U: Pyrifluquinazon, pyrifluquinazon, reference compound]
Observed value Mortality rate (Aphis gossypii; individual active compound, test concentration 0.01 ppm): 40

OCC1=C(C#CCCNc2ncnc3ccccc23)CCCC1 [compound 390]
pest or weed control at 0.1 ppm (Aphis gossypii; [4]): 41%
pest or weed control at 0.5 ppm (Sphaerotheca fuliginea; [5]): 51%
pest or weed control at 0.05 ppm [1, 6]: 38%

FCC1=C(C#CCCNc2ncnc3ccccc23)CCCC1 [compound 391]
pest or weed control at 0.1 ppm (Aphis gossypii; [4]): 43%
pest or weed control at 0.5 ppm (Sphaerotheca fuliginea; [5]): 48%
pest or weed control at 0.05 ppm [1, 6]: 41%

FC(F)(F)c1ccccc1C#CCCNc1ncnc2ccccc12 [compound 101]
pest or weed control at 0.1 ppm (Aphis gossypii; [4]): 36%
pest or weed control at 0.5 ppm (Sphaerotheca fuliginea; [5]): 56%
pest or weed control at 0.05 ppm [1, 6]: 38%

COCc1cc(C)ccc1C#CCCNc1ncnc2ccccc12 [compound 145]
pest or weed control at 0.1 ppm (Aphis gossypii; [4]): 35%
pest or weed control at 0.5 ppm (Sphaerotheca fuliginea; [5]): 45%
pest or weed control at 0.05 ppm [1, 6]: 37%

CC(C)CC(C)c1sccc1NC(=O)c1cn(C)nc1C(F)(F)F (stereo not shown) [Da: Penthiopyrad, penthiopyrad]
pest or weed control at 1 ppm (Sphaerotheca fuliginea; [7]): 51%

CC(C)(C)C(=O)C(Oc1ccc(Cl)cc1)n1cncn1 (stereo not shown) [Hc: Triadimefon, triadimefon]
pest or weed control at 100 ppm (Sphaerotheca fuliginea; [3]): 21%

Cc1c(Br)c2ccc(F)cc2n1S(=O)(=O)c1ncn(S(=O)(=O)N(C)C)n1 [Fc: Amisulbrom, amisulbrom]
Observed value Control index [1, 8]: 37

COCc1cc(Cl)ccc1C#CCCNc1ncnc2ccccc12 [compound 140]
pest or weed control at 0.1 ppm (Aphis gossypii; [4]): 43%
pest or weed control at 0.5 ppm (Sphaerotheca fuliginea; [5]): 48%
pest or weed control at 0.05 ppm [1, 6]: 45%

COc1ccccc1N1CCS/C1=C(/C#N)Sc1cc(C(F)(F)F)ccc1F [Nd: Flutianil, flutianil]
Control index (Sphaerotheca fuliginea; [2]): 42

COC(=O)NC(=S)Nc1ccccc1NC(=S)NC(=O)OC [Ca: Thiophanate-methyl, thiophanate-methyl]
pest or weed control at 2 ppm (Sphaerotheca fuliginea; Podosphaera fuliginea, 336 h, individual active compound, test concentration 2 ppm): 40%

CCC(Nc1ncnc(C)c1Cl)c1ccc(OC(F)F)cc1 (stereo not shown) [Fa: Diflumetorim, diflumetorim]
pest or weed control at 1 ppm (Sphaerotheca fuliginea; [7]): 42%

CON=C(C(=O)OC)c1ccccc1CON=C(C)c1cccc(C(F)(F)F)c1 [Ec: Trifloxystrobin, trifloxystrobin]
pest or weed control at 100 ppm (Sphaerotheca fuliginea; [3]): 24%

COP(=O)(NC(C)=O)SC (stereo not shown) [P: Acephate, acephate, reference compound]
pest or weed control at 10 ppm (Aphis gossypii; Aphis gossypii, 48 h, read-out: Observed value Mortality rate): 47%

mancozeb [Ac: Manzeb]
Observed value Control index [1, 2]: 52

CCc1nn(C)c(C(=O)NCc2ccc(Oc3ccc(C)cc3)cc2)c1Cl [R: Tolfenpyrad, tolfenpyrad, reference compound]
pest or weed control at 0.5 ppm (Aphis gossypii; Aphis gossypii, 48 h, individual active compound, test concentration 0.5 ppm, read-out: Observed value Mortality rate): 48%

CC(C)OC(=O)N[C@H](C(=O)N[C@H](C)c1nc2ccc(F)cc2s1)C(C)C [Jb: Benthiavalicarb-isopropyl, benthiavalicarb]
pest or weed control at 0.5 ppm ([1]; Pseudoperonospora cubensis, 72 h, read-out: Observed value Control index): 12%

CCCCCCCCCCCCc1ccc(S(=O)(=O)O)cc1.CCCCCCCCCCCCc1ccc(S(=O)(=O)O)cc1.CCCCCCCCCCCCc1ccc(S(=O)(=O)O)cc1.NC(N)=NCCCCCCCCNCCCCCCCCN=C(N)N [Ab: Iminoctadine albesilate, iminoctadine albesilate]
Control index (Sphaerotheca fuliginea; individual active compound, test concentration 2 ppm): 41

CC1(C)[C@H](C(=O)O[C@H](C#N)c2cccc(Oc3ccccc3)c2)[C@@H]1/C=C\C(=O)OC(C(F)(F)F)C(F)(F)F [S: Acrinathrin]
Observed value Mortality rate (Aphis gossypii; [8]): 35

COCc1ccccc1C#CCCNc1ncnc2ccccc12 [compound 133]
pest or weed control at 0.1 ppm (Aphis gossypii; [4]): 39%
pest or weed control at 0.5 ppm (Sphaerotheca fuliginea; [5]): 49%
pest or weed control at 0.05 ppm [1, 6]: 41%

CC(C)(C)C(O)(CCc1ccc(Cl)cc1)Cn1cncn1 (stereo not shown) [Hb: Tebuconazole, tebuconazole]
pest or weed control at 10 ppm (Sphaerotheca fuliginea; [9]): 42%

N#Cc1c(Cl)c(Cl)c(Cl)c(C#N)c1Cl [Aa: Chlorothalonil, chlorothalonil]
pest or weed control at 5 ppm (Sphaerotheca fuliginea; Podosphaera fuliginea, 336 h, individual active compound, test concentration 5 ppm): 48%
pest or weed control at 0.5 ppm ([1]; Pseudoperonospora cubensis, 72 h, individual active compound, test concentration 0.5 ppm, read-out: Observed value Control index): 49%

CO/C=C(/C(=O)OC)c1ccccc1Oc1cc(Oc2ccccc2C#N)ncn1 [Ea: Azoxystrobin, azoxystrobin]
Control index (Sphaerotheca fuliginea; individual active compound, test concentration 100 ppm): 21
Observed value Control index [1, 2]: 45

O=C(Cc1ccccc1)N/C(=N\OCC1CC1)c1c(C(F)(F)F)ccc(F)c1F [Nc: Cyflufenamid, cyflufenamid]
pest or weed control at 1 ppm (Sphaerotheca fuliginea; [7]): 49%

FC(F)c1ccccc1C#CCCNc1ncnc2ccccc12 [compound 100]
pest or weed control at 0.1 ppm (Aphis gossypii; [4]): 40%
pest or weed control at 0.5 ppm (Sphaerotheca fuliginea; [5]): 55%
pest or weed control at 0.05 ppm [1, 6]: 42%

COCc1cc(F)ccc1C#CCCNc1ncnc2ccccc12 [compound 139]
pest or weed control at 0.1 ppm (Aphis gossypii; [4]): 41%
pest or weed control at 0.5 ppm (Sphaerotheca fuliginea; [5]): 51%
pest or weed control at 0.05 ppm [1, 6]: 43%

Cc1ccc2nc3sc(=O)sc3nc2c1 [Nb: Chinomethionate, chinomethionat]
pest or weed control at 10 ppm (Sphaerotheca fuliginea; Podosphaera fuliginea, 336 h): 38%

Fc1ccc(Oc2ccnc3cc(Cl)cc(Cl)c23)cc1 [Ia: Quinoxyfen, quinoxyfen]
pest or weed control at 1 ppm (Sphaerotheca fuliginea; [7]): 39%

CCCOC/C(=N\c1ccc(Cl)cc1C(F)(F)F)n1ccnc1 [Hd: Triflumizole, triflumizole]
pest or weed control at 10 ppm (Sphaerotheca fuliginea; [9]): 39%

O=[N+]([O-])NC1=NCCN1Cc1ccc(Cl)nc1 [Q: Imidacloprid, imidacloprid, reference compound]
pest or weed control at 0.01 ppm (Aphis gossypii; Aphis gossypii, 48 h, individual active compound, test concentration 0.01 ppm, read-out: Observed value Mortality rate): 50%

CSC(=O)c1cccc2nnsc12 [Ma: Acibenzolar-S-methyl, acibenzolar-5-methyl]
Control index (Sphaerotheca fuliginea; [10]): 38

COCC(=O)N(c1c(C)cccc1C)[C@H](C)C(=O)OC [Ba: Metalaxyl M, metalaxyl-M]
Observed value Control index [1, 10]: 35
